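Assay format: 96-well plates, 48-hour exposure. GI50 marks 50% less growth.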 The source made the active and inactive calls. Cut-off read from the data, not from the text of the source: active = GI50 up to about 1.1 µM and inactive = higher.

Test systems include SK-MEL-5; NCI-H23; DLD-1; TK-10; HCT-15; SR; A498; UO-31; OVCAR-8; NCI-H460; A549; OVCAR-5; KM12; SNB-75; K562; SW-620; LOX IMVI.
What all share (experiment): NCI-60 cell line screen, 48 h

Regarding `Cc1nc2c(=O)[nH]c(=O)n(C)c2[nH]c1=O.c1ccncc1`, the GI50 in the test with SK-MEL-5 is > 100 µM (inactive); in the test on NCI-H23, > 100 µM (inactive); in the test on DLD-1, > 100 µM (inactive); with TK-10, > 100 µM (inactive); in the test on HCT-15, above 100 µM; in the test with SR, > 100 µM (inactive). For the same molecule, the GI50 in the test with A498, in the test with UO-31, in the test on OVCAR-8, in the test on NCI-H460, in the test with A549 and in the test on OVCAR-5 was > 100 µM (inactive) in each case. The GI50 in the test on KM12, in the test on SNB-75, in the test with K562, in the test with SW-620 and in the test with LOX IMVI was > 100 µM (inactive) in each case.
Turning to `CCCCCCCCCCCCC(=O)CCCCC(=O)O`, the GI50 was 18.2 µM (inactive) in the test on SK-MEL-5; 35.2 µM (inactive) in the test on NCI-H23; 17.9 µM (inactive) in the test on DLD-1; 44.9 µM (inactive) with TK-10; 19.5 µM (inactive) in the test with SR; 16.8 µM (inactive) with A498. The GI50 in the test on UO-31 was 23.9 µM (inactive); in the test on OVCAR-8, 17.5 µM (inactive); with NCI-H460, 19.4 µM (inactive); in the test on A549 it was 18.3 µM (inactive); in the test on OVCAR-5, 18.2 µM (inactive); in the test on KM12 it was 15.8 µM (inactive). Moreover, the GI50 with SNB-75 was 23.4 µM (inactive); in the test with K562, 16.2 µM (inactive); in the test on SW-620, 30.3 µM (inactive); in the test with LOX IMVI, 21 µM (inactive).
Consider `C/C(CCN(C)C)=N\OC(=O)c1ccccc1`, for which the GI50 with SK-MEL-5, in the test with NCI-H23, in the test on DLD-1, in the test on TK-10, in the test with SR and in the test on A498 was > 100 µM (inactive) throughout. In addition, the GI50 in the test on UO-31, with OVCAR-8, in the test on NCI-H460, in the test on A549, with OVCAR-5 and with KM12 was > 100 µM (inactive) throughout. The GI50 was 50.8 µM (inactive) in the test with SNB-75, > 100 µM (inactive) with K562, > 100 µM (inactive) with SW-620 and > 100 µM (inactive) in the test on LOX IMVI.
Turning to `O=c1c2cccnc2ncn1CCCN1CCCCC1`, the GI50 with SK-MEL-5, in the test on NCI-H23, in the test on DLD-1, in the test on TK-10, in the test with SR and with UO-31 was > 100 µM (inactive) in each case. In addition, the GI50 in the test with OVCAR-8, in the test with NCI-H460, in the test on A549, in the test with OVCAR-5, with KM12 and with SNB-75 was > 100 µM (inactive) in each case. Besides, the GI50 in the test with K562, in the test with SW-620 and in the test on LOX IMVI was > 100 µM (inactive) throughout.
For the molecule `CC(=O)N(CCN)CCN`, the GI50 with SK-MEL-5 was > 100 µM (inactive); in the test on NCI-H23, > 10 µM (inactive); in the test with DLD-1 it was > 100 µM (inactive); in the test with TK-10, > 10 µM (inactive); with HCT-15 it was above 100 µM; in the test with SR, > 10 µM (inactive). The GI50 in the test on A498, with UO-31, with OVCAR-8, in the test on NCI-H460, with A549 and in the test on KM12 was > 10 µM (inactive) each time. For the same molecule, the GI50 was > 100 µM (inactive) in the test on SNB-75, > 10 µM (inactive) with K562, > 10 µM (inactive) in the test with SW-620 and > 10 µM (inactive) in the test on LOX IMVI.
`OC(Cn1cncn1)(Cn1cncn1)c1ccc(Cl)cc1Cl`: the GI50 with SK-MEL-5 is > 100 µM (inactive); in the test with NCI-H23, > 100 µM (inactive); in the test on DLD-1 it was > 100 µM (inactive); in the test with TK-10, > 100 µM (inactive); with HCT-15, above 100 µM; in the test on SR it was > 100 µM (inactive). The GI50 with A498, in the test with UO-31, in the test on OVCAR-8, in the test with NCI-H460, in the test with A549 and in the test with OVCAR-5 was > 100 µM (inactive) throughout. Besides, the GI50 with KM12, in the test with SNB-75, in the test on K562, in the test with SW-620 and in the test on LOX IMVI was > 100 µM (inactive) in each case.
For `CCC(C)n1c(C)nc2c1C(=O)c1ccccc1C2=O` (centres undefined), the GI50 in the test with SK-MEL-5 is 26.9 µM (inactive); in the test with NCI-H23, 33.2 µM (inactive); with DLD-1 it was 27.2 µM (inactive); in the test with TK-10 it was 94.6 µM (inactive); in the test on HCT-15, 27.2 µM; with SR it was 47.5 µM (inactive). In addition, the GI50 is 37.8 µM (inactive) in the test with UO-31; 47.1 µM (inactive) in the test on OVCAR-8; 19.3 µM (inactive) with NCI-H460; 33.9 µM (inactive) with A549; > 100 µM (inactive) with KM12; 42.8 µM (inactive) in the test on SNB-75. Further, the GI50 was 34 µM (inactive) in the test with K562, 64.7 µM (inactive) in the test with SW-620 and 23.1 µM (inactive) in the test with LOX IMVI.
In the case of `O=C1CCC2(c3ccc(Cl)cc3)Nc3ccccc3N12` (centres undefined), the GI50 was 42.6 µM (inactive) in the test with NCI-H23; 71 µM (inactive) in the test on DLD-1; > 100 µM (inactive) in the test on TK-10; 97.1 µM with HCT-15; 34.4 µM (inactive) in the test on SR; > 100 µM (inactive) in the test with A498. For the same molecule, the GI50 with UO-31 was 49.7 µM (inactive); with OVCAR-8, > 100 µM (inactive); with NCI-H460, > 100 µM (inactive); with A549, 52.6 µM (inactive); in the test with OVCAR-5 it was > 100 µM (inactive); in the test with KM12 it was > 100 µM (inactive). The GI50 is 19.3 µM (inactive) in the test on SNB-75, 54.5 µM (inactive) in the test on K562, > 100 µM (inactive) in the test with SW-620 and > 100 µM (inactive) in the test with LOX IMVI.
With `COc1cc2c3c(c1OC)Oc1ccc(cc1)CC1c4c(cc(OC)c(OC)c4Oc4ccc(cc4)CC3N(C)CC2)CCN1C` (centres undefined), the GI50 in the test on SK-MEL-5 is 16.7 µM (inactive); in the test with NCI-H23, 57.9 µM (inactive); in the test with DLD-1, 29.2 µM (inactive); in the test on TK-10 it was 22.1 µM (inactive); in the test with SR, 2.88 µM (inactive); in the test on A498 it was 0.0169 µM (active). For the same molecule, the GI50 is 15 µM (inactive) in the test with UO-31; 20.2 µM (inactive) in the test with OVCAR-8; 18.7 µM (inactive) with NCI-H460; 26.2 µM (inactive) in the test with A549; 56.6 µM (inactive) in the test with OVCAR-5; 34.4 µM (inactive) in the test on KM12. Besides, the GI50 was 21.8 µM (inactive) in the test with SNB-75, 16.9 µM (inactive) in the test on K562, 15.1 µM (inactive) with SW-620 and 17.7 µM (inactive) in the test with LOX IMVI.
Turning to `CC1=C(Cl)C=CP(=O)(OC(C)C)C1` (centres undefined), the GI50 with SK-MEL-5 was > 100 µM (inactive); with NCI-H23, > 100 µM (inactive); in the test with DLD-1 it was 35.7 µM (inactive); with TK-10, > 100 µM (inactive); with HCT-15, above 100 µM; in the test with SR, 46.2 µM (inactive). Moreover, the GI50 was > 100 µM (inactive) in the test with A498; > 100 µM (inactive) in the test with UO-31; 36.9 µM (inactive) in the test with OVCAR-8; > 100 µM (inactive) with NCI-H460; > 100 µM (inactive) with A549; > 100 µM (inactive) in the test with OVCAR-5. Also, the GI50 was > 100 µM (inactive) with KM12, 0.39 µM (active) in the test with SNB-75, 47.4 µM (inactive) in the test with K562 and 67.8 µM (inactive) with SW-620.
On to `CNS(=O)(=O)NN(C)S(=O)(=O)c1ccc(Cl)cc1`, for which the GI50 is > 100 µM (inactive) in the test on SK-MEL-5; > 100 µM (inactive) in the test on NCI-H23; > 100 µM (inactive) in the test with DLD-1; > 100 µM (inactive) in the test with TK-10; above 100 µM in the test on HCT-15; > 100 µM (inactive) in the test with SR. Further, the GI50 with A498, in the test on UO-31, in the test on OVCAR-8, in the test on A549, in the test with KM12 and in the test on SNB-75 was > 100 µM (inactive) each time. Moreover, the GI50 in the test on K562, in the test on SW-620 and in the test with LOX IMVI was > 100 µM (inactive) in each case.
In the case of `CNS(=O)(=O)NN(C)S(=O)(=O)c1ccc(C)cc1`, the GI50 with SK-MEL-5, with NCI-H23, in the test with DLD-1, in the test on TK-10, in the test on SR and in the test with A498 was > 100 µM (inactive) in each case. Moreover, the GI50 in the test on UO-31, in the test with OVCAR-8, in the test on NCI-H460, with A549, in the test with OVCAR-5 and in the test with KM12 was > 100 µM (inactive) in each case. Further, the GI50 in the test on K562 was > 10 µM (inactive); with SW-620 it was > 100 µM (inactive).
Take `COc1ccc(-c2onc(-c3c(C)cc(C)cc3C)c2C2=NCCN2)cc1`: the GI50 was 17.2 µM (inactive) in the test with SK-MEL-5; > 100 µM (inactive) in the test on NCI-H23; 74 µM (inactive) in the test on DLD-1; 40.3 µM in the test on HCT-15; 32.2 µM (inactive) in the test on SR; 17.1 µM (inactive) in the test with UO-31. The GI50 is 34.8 µM (inactive) in the test with OVCAR-8; 28.8 µM (inactive) in the test with NCI-H460; 74.5 µM (inactive) in the test on A549; > 100 µM (inactive) in the test with OVCAR-5; 44.5 µM (inactive) with KM12; 84.9 µM (inactive) in the test with SNB-75. Moreover, the GI50 is 28.2 µM (inactive) in the test with K562, 47.2 µM (inactive) in the test on SW-620 and 30.1 µM (inactive) in the test with LOX IMVI.

(Values after ChEMBL document CHEMBL1201862, “PubChem BioAssay data set” (2004).)
